Laboratory results as given in article PMC10641814 (Journal of Medicinal Chemistry, 2023).

Tests used:
h5-HT6R = biological target: T1, h5-HT6R (Homo sapiens, UniProt P50406); experiment: 5-HT6R radioligand binding ([3H]-LSD) in HEK293 cells stably expressing h5-HT6R; conditions: 2 nM [3H]-LSD, mean of three independent experiments, read-out: Ki ± SEM [nM] 5-HT6R
T1 construct: expressed in transfected cells

hMAO-B = biological target: T2, hMAO-B (Homo sapiens, UniProt P27338); experiment: MAO-B inhibition, fluorometric method, p-tyramine substrate; format: biochemical; conditions: two experiments in duplicate
T2 construct: purchased Sigma-Aldrich M7441
T2 sequence (P27338 1-520): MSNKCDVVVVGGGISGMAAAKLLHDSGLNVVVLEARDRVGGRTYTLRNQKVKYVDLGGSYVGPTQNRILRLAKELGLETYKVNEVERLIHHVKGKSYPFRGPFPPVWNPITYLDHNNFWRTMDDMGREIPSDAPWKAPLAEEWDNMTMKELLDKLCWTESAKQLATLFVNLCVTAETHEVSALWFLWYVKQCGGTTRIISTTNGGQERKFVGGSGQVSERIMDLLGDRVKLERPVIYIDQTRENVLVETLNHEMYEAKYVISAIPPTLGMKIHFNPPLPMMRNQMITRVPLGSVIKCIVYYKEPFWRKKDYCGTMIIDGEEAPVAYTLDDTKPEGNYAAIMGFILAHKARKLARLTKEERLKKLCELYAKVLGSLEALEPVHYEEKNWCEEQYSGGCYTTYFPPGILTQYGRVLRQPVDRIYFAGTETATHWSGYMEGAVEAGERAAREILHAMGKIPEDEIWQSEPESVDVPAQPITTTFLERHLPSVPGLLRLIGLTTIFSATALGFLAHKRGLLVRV

T1 sequence (P50406 whole entry): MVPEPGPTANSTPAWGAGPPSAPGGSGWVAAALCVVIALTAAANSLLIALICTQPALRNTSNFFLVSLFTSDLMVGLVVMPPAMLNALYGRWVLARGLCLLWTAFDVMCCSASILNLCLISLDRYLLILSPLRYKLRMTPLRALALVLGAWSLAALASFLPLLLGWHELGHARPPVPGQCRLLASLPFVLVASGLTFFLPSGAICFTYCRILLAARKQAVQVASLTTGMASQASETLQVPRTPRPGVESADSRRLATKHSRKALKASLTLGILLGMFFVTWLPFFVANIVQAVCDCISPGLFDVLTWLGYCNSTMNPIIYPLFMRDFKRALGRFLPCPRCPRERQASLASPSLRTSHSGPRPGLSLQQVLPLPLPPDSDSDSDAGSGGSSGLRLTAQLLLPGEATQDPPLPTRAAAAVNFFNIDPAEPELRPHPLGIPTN

Ki (h5-HT6R) | pIC50 ± SEM (MAO-B) (hMAO-B) | SMILES
723 ± 87 nM | 8.22 ± 0.14 | CNC1CN(c2nc3ccccc3c3c2ccn3Cc2cccc(Cl)c2)C1.Cl [Compound 15]
1340 ± 156 nM | 7.43 ± 0.04 | CN(C)C1CCN(c2nc3ccccc3c3c2ccn3Cc2cccc(Cl)c2)C1.Cl (stereo not shown) [Compound 13]
140 ± 18 nM | 8.02 ± 0.12 | Cl.Clc1cccc(Cn2ccc3c(NC[C@H]4CCNC4)nc4ccccc4c32)c1 [Compound 11]
25 ± 3 nM | 6.86 ± 0.07 | COc1cccc(Cn2ccc3c(N[C@H]4CCNC4)nc4ccccc4c32)c1.Cl [Compound 8]
21 ± 2 nM | 6.16 ± 0.05 | Cl.Fc1cccc(Cn2ccc3c(N[C@H]4CCNC4)nc4ccccc4c32)c1 [Compound 4]
214 ± 26 nM | 5.70 ± 0.04 | Cl.Clc1cccc(Cn2ccc3c(NC[C@H]4CCCN4)nc4ccccc4c32)c1 [Compound 9]
1520 ± 220 nM | 8.00 ± 0.00 | Cl.NC[C@@H]1CCN(c2nc3ccccc3c3c2ccn3Cc2cccc(Cl)c2)C1 [Compound 14]
1270 ± 173 nM | 5.60 ± 0.02 | CN(C)C1CCN(c2nc3ccccc3c3c2ccn3Cc2cccc(Cl)c2)CC1.Cl [Compound 19]
677 ± 82 nM | 7.01 ± 0.11 | Cl.Clc1cccc(Cn2ccc3c(N4CC5(CCNC5)C4)nc4ccccc4c32)c1 [Compound 20, 1-(3-Chlorobenzyl)-4-(2,6-diazaspiro[3.4]octan-2-yl)-1H-pyrrolo[3,2-c]quinoline Hydrochloride]
152 ± 18 nM | 5.36 ± 0.03 | Cl.Clc1cccc(CNc2cc(N3CCNCC3)nc3ccccc23)c1 [Compound 25]
372 ± 48 nM | 6.73 ± 0.02 | Cl.Clc1cccc(Cn2ccc3c(N4C[C@H]5C[C@@H]4CN5)nc4ccccc4c32)c1 [Compound 18]
5450 ± 793 nM | 5.18 ± 0.04 | Cl.Clc1cccc(CNc2ccnc(N3CCNCC3)c2)c1 [Compound 26]
138 ± 15 nM | 7.69 ± 0.12 | Cl.Clc1cccc(Cn2ccc3c(N4CCCNCC4)nc4ccccc4c32)c1 [Compound 17]
122 ± 10 nM | 6.52 ± 0.04 | Cl.Clc1cccc(Cn2ccc3c(NC[C@@H]4CCNC4)nc4ccccc4c32)c1 [Compound 12]
226 ± 30 nM | 6.52 ± 0.04 | Cl.Clc1cccc(Cn2ccc3c(NC[C@@H]4CCCN4)nc4ccccc4c32)c1 [Compound 10, (S)-1-(3-Chlorobenzyl)-N-(pyrrolidin-2-ylmethyl)-1H-pyrrolo[3,2-c]quinolin-4-amine Hydrochloride]
10 ± 1 nM | 6.89 ± 0.12 | Brc1cccc(Cn2ccc3c(N[C@H]4CCNC4)nc4ccccc4c32)c1.Cl [Compound 7]
21 ± 3 nM | 6.57 ± 0.03 | Cl.c1ccc(Cn2ccc3c(N[C@H]4CCNC4)nc4ccccc4c32)cc1 [Compound 3]
920 ± 127 nM | 6.97 ± 0.05 | Cl.Clc1cccc(Cn2ccc3c(N4CC5(CNC5)C4)nc4ccccc4c32)c1 [Compound 21]
119 ± 14 nM | 5.21 ± 0.02 | Cl.Clc1cccc(Cn2ccc3c(CN4CCNCC4)nc4ccccc4c32)c1 [Compound 24]
7 ± 1 nM | 6.92 ± 0.04 | Cl.Clc1cccc(Cn2ccc3c(N[C@H]4CCNC4)nc4ccccc4c32)c1 [Compound 5, (S)-1-(3-Chlorobenzyl)-N-(pyrrolidin-3-yl)-1H-pyrrolo[3,2-c]quinolin-4-amine Hydrochloride]
541 ± 80 nM | 6.13 ± 0.06 | Cl.Clc1cccc(Cn2ccc3c(C4CCNCC4)nc4ccccc4c32)c1 [Compound 23, 1-(3-Chlorobenzyl)-4-(piperidin-4-yl)-1H-pyrrolo[3,2-c]quinoline Hydrochloride]
30 ± 4 nM | 6.83 ± 0.01 | Cl.Clc1cccc(Cn2ccc3c(N[C@@H]4CCNC4)nc4ccccc4c32)c1 [Compound 6]

SMILES | Ki (h5-HT6R) | pIC50 ± SEM (MAO-B) (hMAO-B)
Cl.Clc1cccc(Cn2ccc3c(C4=CCNCC4)nc4ccccc4c32)c1 [Compound 22] | 34 ± 4 nM | 6.67 ± 0.04
